{"source": "paper PMC7269146", "about": "“Jingzhaotoxin-X, a gating modifier of Kv4.2 and Kv4.3 potassium channels purified from the venom of the Chinese tarantula Chilobrachys jingzhao” (The Journal of Venomous Animals and Toxins Including …, 2020)", "key": {"[1]": {"biological_target": "T1, Kv4.3 (Rattus norvegicus, UniProt Q62897)", "T1 construct": "expressed in transfected cells; host or cells: HEK293t", "T1 sequence (Q62897 1-655)": "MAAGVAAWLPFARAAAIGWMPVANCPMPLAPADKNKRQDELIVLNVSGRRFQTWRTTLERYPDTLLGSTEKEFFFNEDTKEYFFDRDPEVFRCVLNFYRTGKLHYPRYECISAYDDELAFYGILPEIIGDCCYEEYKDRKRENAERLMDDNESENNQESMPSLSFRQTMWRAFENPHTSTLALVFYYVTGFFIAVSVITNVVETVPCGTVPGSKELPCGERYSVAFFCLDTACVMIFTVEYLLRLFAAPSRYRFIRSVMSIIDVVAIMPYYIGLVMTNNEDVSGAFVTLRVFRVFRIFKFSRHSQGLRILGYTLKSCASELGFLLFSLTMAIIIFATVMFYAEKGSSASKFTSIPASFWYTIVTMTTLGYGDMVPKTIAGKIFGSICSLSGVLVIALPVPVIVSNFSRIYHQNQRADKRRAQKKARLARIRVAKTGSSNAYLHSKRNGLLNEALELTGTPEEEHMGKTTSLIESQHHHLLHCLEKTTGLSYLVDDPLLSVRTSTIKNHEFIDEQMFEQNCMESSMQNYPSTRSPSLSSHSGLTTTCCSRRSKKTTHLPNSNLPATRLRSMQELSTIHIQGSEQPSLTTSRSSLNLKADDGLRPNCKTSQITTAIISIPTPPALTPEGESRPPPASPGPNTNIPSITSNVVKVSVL", "test": "kinetic constants of JZTX-X at Kv4.3 channel (wash-in / wash-out)", "format": "cell-based", "conditions": "test conc. 0.5 μM, n = 8", "source_text": "(§1) Rat cDNA genes encoding Kv4.2 (Accession: NM_031730.2) and Kv4.3 (Accession: AB003587.1) were subcloned to vector pcDNA3.1. In addition, human cDNA genes encoding Nav1.7 (Accession: DQ857292.1) and Nav1.5 (Accession: AB158469.2) were subcloned to vectors pcDNA3.1-mod and pcDNA3.1, separately. Then, Kv4.2, Kv4.3, Nav1.5 and Nav1.7 constructs were transiently transfected into the human embryonic kidney 293t (HEK293t) cells using lipofectamine 2000 (Invitrogen, USA) in accordance with manufacturer protocols. Thereafter, HEK293 cells were inoculated within Dulbecco’s modified Eagle’s medium (DMEM) containing 10% fetal bovine serum (FBS) at 5% CO2 and 37°C. The Kv4.3 channel and the Kv4.2 counterpart were then transfected in the absence of β subunit. Subsequently, cells were incubated with a DNA-lipofectamine mixture (one reporter plasmid for green fluorescence protein and channel constructs) for 4-6 h, and were washed with the fresh medium.\nAn EPC-10 patch-clamp amplifier (HEKA, Germany) was employed to record the potassium currents at the configuration of whole-cell patch-clamp under an ambient temperature of 22-25°C. The resistance was 2.0-3.0 MΩ when the recording pipette contained a full volume of internal solution (supplemented with 140 mM KCl, 10 mM HEPES, 2.5 mM MgCl2, 5 mM ATP and 11 mM EGTA). KOH was utilized to adjust the pH to 7.2, while sucrose was employed to adjust the osmolarity to 310 mOsm/L. The culture medium was replaced with an external solution containing 150 mM NaCl, 2.5 mM CaCl2, 10 mM HEPES, 2 mM MgCl2, 5 mM KCl, and 10 mM D-glucose. Similarly, sucrose and NaOH were applied to adjust the osmolarity to 330 mOsm/L and pH to 7.4. […] The series resistance was maintained at about 5 MΩ, with 65-70% compensation. Finally, the leakage currents and linear capacitance were subtracted digitally according to the P/4 protocol.\nAs for kinetic calculations, curves as a function of peak currents vs. time were plotted from the toxin wash-out or wash-in moments. The software Sigmaplot 9.0 (Sigma, USA) was utilized to fit data to the first-order exponential equation. […]"}, "[2]": {"tested_on": "Nav1.7", "test": "voltage-clamp, Nav1.7 currents", "format": "cell-based, human", "conditions": "1 μM; n = 3", "source_text": "as §1\nAn EPC-10 patch-clamp amplifier (HEKA, Germany) was employed to record the potassium currents at the configuration of whole-cell patch-clamp under an ambient temperature of 22-25°C. The resistance was 2.0-3.0 MΩ when the recording pipette contained a full volume of internal solution (supplemented with 140 mM KCl, 10 mM HEPES, 2.5 mM MgCl2, 5 mM ATP and 11 mM EGTA). […]"}}, "note": "“Also recorded” adds a separate entry of the source. Where a SMILES comes first, the peptide text is derived from it. Bridges are numbered along the chain shown (N, C = ends)."}
{"smiles": "CC(C)C[C@@H]1NC(=O)[C@H](CCCCN)NC(=O)[C@H](Cc2ccc(O)cc2)NC(=O)[C@@H]2CSSC[C@@H]3NC(=O)[C@H](Cc4ccc(O)cc4)NC(=O)[C@H](Cc4ccccc4)NC(=O)CNC(=O)[C@H](C)NC(=O)[C@H](CSSC[C@H](NC(=O)[C@@H](N)CC(C)C)C(=O)N[C@@H](CO)C(=O)N[C@@H](CCCNC(=N)N)C(=O)N[C@@H](CCC(=O)O)C(=O)NCC(=O)N[C@@H](CCC(=O)O)C(=O)N[C@@H](Cc4ccccc4)C(=O)N2)NC(=O)[C@H](CSSC[C@@H](C(=O)N[C@@H](Cc2ccc(O)cc2)C(=O)N[C@@H](CCCNC(=N)N)C(=O)N[C@@H](CC(N)=O)C(=O)O)NC(=O)[C@H](Cc2c[nH]cn2)NC(=O)[C@H](CC(C)C)NC(=O)[C@H](C(C)C)NC(=O)[C@H](Cc2ccccc2)NC(=O)[C@H](C)NC(=O)[C@H](CCCCN)NC3=O)NC(=O)[C@H](CCCCN)NC(=O)[C@H](CCCNC(=N)N)NC1=O", "note": "[JZTX-X, Jingzhaotoxin-X] (H-LCSREGEFCYKLRKCCAGFYCKAFVLHCYRN-OH; disulfide 2-16, 9-21, 15-28; N-terminus assumed)", "values": [{"measurement": "kmod, Kv4.3 channel", "setting": "[1]; inverse of τ of toxin wash-in", "result": "0.073 ± 0.006", "unit": "s⁻¹"}, {"measurement": "koff", "setting": "[1]; inverse of τ of toxin wash-out", "result": "0.005 ± 0.0004", "unit": "s⁻¹"}, {"measurement": "Ki", "setting": "[1]; method text: Kd = koff / kon", "result": "735 ± 50", "unit": "nM"}, {"measurement": "effect on Nav1.7 channel", "setting": "[2]", "result": "negligible effect; also recorded: did not affect the currents"}]}
